Source: the NIST ThermoML archive (doi:10.1021/je200790q)
Numbers after ± are expanded uncertainties.

How the values were obtained:
[1] = refractive index (Na D-line) (dimensionless); conditions: 101.33 kPa, Liquid, Standard Abbe refractometry
[2] = 101.33 kPa, Liquid; for mass density: Vibrating tube method
[3] = molar heat capacity at constant pressure; conditions: 298.15 K; 101.33 kPa; Liquid; Drop calorimetry

CCn1cc[n+](C)c1.CS(=O)(=O)[O-] [1-ethyl-3-methylimidazolium methanesulfonate]
Conditions	mass density, [2] [kg/m3]	refractive index, [1]	viscosity, [2] [mPa·s]
278.15 K	1257.1 ± 2	–	805.33 ± 79
283.15 K	1253.3 ± 2	–	505.92 ± 42
288.15 K	1249.5 ± 2	–	336.04 ± 23
288.37 K	–	1.49823 ± 0.00053	–
293.15 K	1245.9 ± 2	–	232.44 ± 13
293.28 K	–	1.49682 ± 0.00053	–
298.15 K	1242.4 ± 2	–	166.59 ± 7.4
298.19 K	–	1.49542 ± 0.00053	–
303.1 K	–	1.49399 ± 0.00053	–
303.15 K	1239 ± 2	–	123.14 ± 4.2
308.01 K	–	1.49254 ± 0.00053	–
308.15 K	1235.6 ± 2	–	93.48 ± 2.3
312.91 K	–	1.49114 ± 0.00053	–
313.15 K	1232.2 ± 2	–	72.64 ± 1.3
318.15 K	1228.8 ± 2	–	57.62 ± 0.66
323.15 K	1225.5 ± 2	–	46.54 ± 0.59
328.15 K	1222.2 ± 2	–	38.2 ± 0.47
333.15 K	1218.9 ± 2	–	31.81 ± 0.38
338.15 K	1215.6 ± 2	–	26.84 ± 0.32
343.15 K	1212.3 ± 2	–	22.9 ± 0.27
348.15 K	1209.1 ± 2	–	19.75 ± 0.23
353.15 K	1205.9 ± 2	–	17.19 ± 0.2
358.15 K	1202.8 ± 2	–	15.08 ± 0.17
363.15 K	1199.7 ± 2	–	13.33 ± 0.15

Conditions	molar heat capacity at constant pressure [J/K/mol]
[3]	345.52 ± 10

CCn1cc[n+](C)c1.CO[PH](=O)[O-] [1-ethyl-3-methylimidazolium methyl phosphonate]
Conditions	mass density, [2] [kg/m3]	refractive index, [1]	viscosity, [2] [mPa·s]
278.15 K	1222.2 ± 2	–	916.06 ± 94
283.15 K	1218.6 ± 2	–	598.79 ± 53
288.15 K	1215.1 ± 2	–	406.82 ± 30
288.37 K	–	1.49534 ± 0.00053	–
293.15 K	1211.7 ± 2	–	285.8 ± 18
293.28 K	–	1.4939 ± 0.00053	–
298.15 K	1208.3 ± 2	–	206.76 ± 11
298.19 K	–	1.49249 ± 0.00053	–
303.1 K	–	1.49115 ± 0.00052	–
303.15 K	1205 ± 2	–	153.63 ± 6.3
308.01 K	–	1.48982 ± 0.00052	–
308.15 K	1201.8 ± 2	–	116.89 ± 3.8
312.91 K	–	1.48854 ± 0.00052	–
313.15 K	1198.6 ± 2	–	90.83 ± 2.2
317.82 K	–	1.48714 ± 0.00053	–
318.15 K	1195.5 ± 2	–	71.92 ± 1.2
323.15 K	1192.3 ± 2	–	57.94 ± 0.64
328.15 K	1189.2 ± 2	–	47.38 ± 0.59
333.15 K	1186.1 ± 2	–	39.29 ± 0.48
338.15 K	1183 ± 2	–	32.99 ± 0.39
343.15 K	1179.9 ± 2	–	28.02 ± 0.33
348.15 K	1176.9 ± 2	–	24.05 ± 0.28
353.15 K	1173.9 ± 2	–	20.83 ± 0.24
358.15 K	1170.9 ± 2	–	18.2 ± 0.2
363.15 K	1167.9 ± 2	–	16.03 ± 0.18

Conditions	molar heat capacity at constant pressure [J/K/mol]
[3]	354.63 ± 11

CCn1cc[n+](C)c1.N#C[S-] [1-ethyl-3-methylimidazolium thiocyanate]
Conditions	mass density, [2] [kg/m3]	refractive index, [1]	viscosity, [2] [mPa·s]
278.15 K	1129.7 ± 2	–	54.57 ± 0.55
283.15 K	1126.5 ± 2	–	43.51 ± 0.57
288.15 K	1123.3 ± 2	–	35.36 ± 0.45
293.15 K	1120.1 ± 2	–	29.21 ± 0.36
298.15 K	1117 ± 2	–	24.5 ± 0.29
303.15 K	1113.9 ± 2	–	20.79 ± 0.24
308.15 K	1110.8 ± 2	–	17.86 ± 0.21
313.15 K	1107.8 ± 2	–	15.49 ± 0.18
318.15 K	1104.8 ± 2	–	13.56 ± 0.15
323.15 K	1101.8 ± 2	–	11.97 ± 0.14
328.15 K	1098.8 ± 2	–	10.64 ± 0.12
332.55 K	–	1.53909 ± 0.00054	–
333.15 K	1095.9 ± 2	–	9.528 ± 0.11
334.52 K	–	1.5385 ± 0.00053	–
336.48 K	–	1.53794 ± 0.00053	–
338.15 K	1093 ± 2	–	8.582 ± 0.096
338.44 K	–	1.53739 ± 0.00053	–
340.41 K	–	1.53682 ± 0.00052	–
342.37 K	–	1.53636 ± 0.00051	–
343.15 K	1090.1 ± 2	–	7.773 ± 0.087
348.15 K	1087.2 ± 2	–	7.076 ± 0.08
353.15 K	1084.3 ± 2	–	6.472 ± 0.073
358.15 K	1081.5 ± 2	–	5.945 ± 0.068
363.15 K	1078.7 ± 2	–	5.485 ± 0.063

Conditions	molar heat capacity at constant pressure [J/K/mol]
[3]	281.45 ± 8.4

CCn1cc[n+](C)c1.O=S(=O)([O-])C(F)(F)F [1-ethyl-3-methylimidazolium trifluoromethanesulfonate]
Conditions	mass density, [2] [kg/m3]	refractive index, [1]	viscosity, [2] [mPa·s]
278.15 K	1403.3 ± 2.1	–	99.83 ± 2.6
283.15 K	1398.9 ± 2.1	–	78.93 ± 1.5
288.15 K	1394.5 ± 2.1	–	63.51 ± 0.83
288.37 K	–	1.43572 ± 0.00053	–
293.15 K	1390.2 ± 2.1	–	51.87 ± 0.49
293.28 K	–	1.43432 ± 0.00053	–
298.15 K	1385.9 ± 2.1	–	42.94 ± 0.52
298.19 K	–	1.43296 ± 0.00053	–
303.1 K	–	1.43159 ± 0.00053	–
303.15 K	1381.6 ± 2.1	–	35.98 ± 0.43
308.01 K	–	1.43025 ± 0.00053	–
308.15 K	1377.3 ± 2.1	–	30.48 ± 0.36
312.91 K	–	1.42886 ± 0.00053	–
313.15 K	1373.1 ± 2.1	–	26.09 ± 0.3
318.15 K	1368.9 ± 2.1	–	22.53 ± 0.26
323.15 K	1364.8 ± 2.1	–	19.62 ± 0.22
328.15 K	1360.6 ± 2.1	–	17.21 ± 0.19
333.15 K	1356.5 ± 2.1	–	15.21 ± 0.17
338.15 K	1352.5 ± 2.1	–	13.52 ± 0.15
343.15 K	1348.4 ± 2.1	–	12.1 ± 0.13
348.15 K	1344.4 ± 2.1	–	10.88 ± 0.12
353.15 K	1340.4 ± 2.1	–	9.845 ± 0.11
358.15 K	1336.4 ± 2.1	–	8.948 ± 0.099
363.15 K	1332.5 ± 2.1	–	8.169 ± 0.091

Conditions	molar heat capacity at constant pressure [J/K/mol]
[3]	362.8 ± 11
